Several values for one entry are separate records, joined by “and”; a condition that tells them apart may be missing. Equal values may be shown once. Read-outs that look alike come from different tables or passages of the source.

The test system of assay [1] is Corn. The experiment in a line: Greenhouse test, combination of Procedures II and III: insecticide in-furrow or in cover layer, herbicide and antidote incorporated in cover layer (Examples 1-3, 6; Tables 1-3, 6). In kind it is in vivo. Particulars: 3 weeks.
In assay [2] the test system is Corn. Particulars: for antidote activity: COUNTER with BEACON, PURSUIT (POE) or XRD-498 (PPI), Tables 29-37.
The test system of assay [3] is Corn. The experiment in a line: Greenhouse test Procedure VII: biocide and antidote in furrow, herbicide POE (Examples 39-42, 48-50, 56-58; Tables 38-41, 47-49, 55-57). Particulars: for % Inhibition Corn: C (COUNTER) + antidote in furrow. In kind it is in vivo. From the text:
This procedure describes interaction among herbicide, biocide and antidote when the biocide and the antidote is applied to a soil furrow containing crop seed before emergence of the crop and the herbicide is applied after emergence of the crop and weeds. The soil and planting depth was described in Procedure IV. The containers for comparison, the biocide and antidote applications to soil furrows were described in Procedure VI. In this procedure, the seed beds of the first, second, third and fourth containers are covered by soil layers not treated with herbicide. The containers were then placed on a bench in a greenhouse and subirrigated as required for the duration of the test. The herbicide, dispersed or dissolved in water containing 0.25% v/v nonionic surfactant (X-77) was applied by a track sprayer (187 L/ha) to the emerged plants of the second, third and fourth containers about five days after planting. All treatments were run in duplicate. Plant response was observed according to Procedure IV. Variations in this procedure will be noted in the examples.
In this example, tests were conducted according to Procedure VII for the POE application of the herbicides following in-furrow application of COUNTER® 15G insecticide (BIOCIDE No. 1) and the antidote on the pre-planted test seeds. In this test, the herbicides were Nos. 1 (MON-12000), 10 (ALLY®) and #4 (HARMONY®) and the Antidote Nos. 1, 7, 12 and 33.
These in-furrow treatments comprised a 50-50 mix of blended granules of COUNTER with and without 5G granular antidotes at 7.4 + 7.4 mg/cm or 1.1 + 0.37 mg active ingredient (a.i.)/cm. The in-furrow initiation of the test was followed five (5) days later with POE application of the herbicides; observations were made eight (8) days later.
In another test, conducted simultaneously with that in Example 39, Herbicide Nos. 5 (chlorimuron ethyl, active ingredient in CLASSIC® herbicide), 7 (nicosulfuron, active ingredient in ACCENT® herbicide) and 15 (tribenuron methyl, active ingredient in EXPRESS® herbicide) were substituted as test herbicides.
In this example, using the same procedure as above, the following imidazolinone herbicides were used with the same insecticide/biocide and antidotes as above: Herb. No. 16 (imazaquin, a.i. in SCEPTER® herbicide; No. 19 (Code No. AC 222293, a.i. in ASSERT® herbicide); No. 6 (imazethapyr, a.i. in PURSUIT® herbicide and No. 18 (imazapyr, a.i. in ARSENAL® herbicide). Test results are shown in Table 40. Table 40
This example describes the testing of the above antidotes used in Examples 39-41 to safen negative synergy interactions between representative species of the class of herbicidal compounds identified as azolopyrimidine sulfonamides and COUNTER 15G. The same procedure used in the above examples was conducted in this test. In this test, the herbicides were formulated in 17% acetone and 83% water with 0.25% v/v X-77 surfactant.
In these tests (according to Procedure VII) the safeners in solution with acetone were applied in furrow to the soil, followed by COUNTER 15G granules at 227 g/305 m (8 oz./1000'). Applications were made in alternate rows in two separate 13.7 cm x 27.7 cm pans containing Dupo silt loam. Pans were seeded 1.3 cm deep, placed on benches in a greenhouse and subirrigated. BEACON was formulated in water with 0.25% v/v X-77 surfactant and applied by track sprayer at a rate of 187 L/Ha (20 gal/A). Weed species in this test were giant foxtail, shattercane and velvetleaf. The herbicide was applied five (5) days after PPI initiation and observation of test result (shown in Table 47) made eight (8) days later.
In Table 47 COUNTER 15G is abbreviated as "C" and the antidotes as "A" in the column headings which indicate the "C + A" ratios used in the tests. Control and COUNTER treatments are average of four (4) replications and COUNTER + Antidote treatments, average of 2 reps. […]

Assay [4] relates to Corn.
Another assay concerns Velvetleaf (VELE). In kind it is in vivo, Abutilon theophrasti.
The next assay deals with Giant foxtail (GIFT). The experiment in a line: whole plant or invertebrate. It is filed as in vivo.
A further assay relates to Shattercane (SHCA). It is filed as in vivo.
The mark [5] stands for this setting: C:A Ratio 20, ACCENT 0.56 Kg/Ha POE.
Setting [6] is: C:A Ratio 20, BEACON 0.28 Kg/Ha POE.
The mark [7] stands for this setting: C:A Ratio 40, ACCENT 0.56 Kg/Ha POE.
[8] abbreviates: C:A Ratio 40, BEACON 0.28 Kg/Ha POE.
Setting [9] is: C:A Ratio 80, ACCENT 0.56 Kg/Ha POE.
[10] abbreviates: C:A Ratio 80, BEACON 0.28 Kg/Ha POE.
Setting [11] is: C:A Ratio 160, ACCENT 0.56 Kg/Ha POE.
Where [12] appears, read: C:A Ratio 160, BEACON 0.28 Kg/Ha POE.
The mark [13] stands for this setting: […], 13 days after planting, 8 days after herbicide.
The mark [14] stands for this setting: Antidote 4.48 + Biocide No. 1 8.96 Kg/Ha PPI, Herb. No. 8 0.07, 5 DAP, before herbicide application.
Where [15] appears, read: Antidote 4.48 + Biocide No. 1 8.96 Kg/Ha PPI, Herb. No. 8 0.07 POE, 13 DAP.
The mark [16] stands for this setting: Antidote 4.48 + Biocide No. 1 8.96 Kg/Ha PPI, Herbicide No. 7 0.28 POE, 13 days after planting.
Where [17] appears, read: Herb. […], 5 DAP, before herbicide application.
[18] abbreviates: Table 14: Herbicide No. 7 (ACCENT) 0.84 Kg/Ha POE + Biocide No. 2 8.96 Kg/Ha PPI + antidote 4.48 Kg/Ha PPI, 13 days after planting, 8 days after herbicide.
[19] abbreviates: […], observed 10 days after herbicide application.

Turning to `Cc1c(F)c(F)c(COC(=O)[C@@H]2[C@H](/C=C(\Cl)C(F)(F)F)C2(C)C)c(F)c1F` (racemic) [Biocide No. 3, 2,3,5,6-tetrafluoro-4-methylbenzyl-(Z(-(1 RS, 3RS)-3-(2-Chloro-3,3,3-trifluoroprop-1-ethyl)-2,2-dimethyl-cyclopropane carboxylate, reference compound], the “% Injury Corn” value in the assay on Corn [1] (Ex. 3: Insecticide 3 (227g) alone) is given as 3%.

In the case of `CCSC(=O)COC(c1ccccc1)c1ccccc1` [Antidote No. 51, Ethanethioic acid, 2-(diphenyl-methoxy)-, S-ethyl ester], the “antidote activity” value with Corn [2] is on record as “most active”.

Regarding `O=C(C(Cl)Cl)N1CCOC12CCCCC2` [Antidote No. 16, 1-Oxa-4-azaspiro<4.5>decane, 4-(dichloroacetyl)-], in the assay on Corn [3] (COUNTER 15G + BEACON/co-herbicide combinations, Example 56), the “corn injury” value is reported as “reduced corn injury”. The “safening, comparison” value with Corn [3] (COUNTER 15G/BEACON, Example 48) was “not as active as the other safeners”. Further, the “protecting corn, comparison” value in the assay on Corn [3] (COUNTER/BEACON (and ACCENT), Examples 49, 50) is given as “weak in safening effect”.

For `O=C(O)COC(c1ccccc1)c1ccccc1` [compound 78], the “% Inhibition Corn” value in the assay with Corn [3] (setting [5]) was 25%; in the assay with Corn [3] (setting [6]), 5%; with Corn [3] (setting [7]), 20%; in the assay with Corn [3] (setting [8]) it was 5%; in the assay with Corn [3] (setting [9]), 40%; in the assay with Corn [3] (setting [10]) it was 20%. Also, the “% Inhibition Corn” value with Corn [3] (setting [11]) came out at 60%; with Corn [3] (setting [12]), 20%.

For `CC1COc2ccccc2N1C(=O)C(Cl)Cl` (stereo not drawn) [Antidote No. 28, 4-(Dichloroacetyl)-3,4-dihydro-3-methyl-2H-1,4-benzoxazine], the “safening” value in the assay on Corn [4] (DIAZINON + Herbicides 1, 21, 18, Example 53) is given as “Effective safening”; in the assay on Corn [4] (malathion + Herbicides 1, 21, 18, Example 54), “moderate to high degrees of safening”. Also, the “safening, comparison” value in the assay on Corn [2] (Example 29, COUNTER with BEACON and ACCENT) is “comparable to MON-13900 (No. 1), but less effective than MON-7400”.

Turning to `N#CCON=C(C#N)c1ccccc1` [Antidote No. 9, Benzeneacetonitrile, alpha-<(cyano-methoxy)imino>-], the “antidote activity” value in the assay on Corn [2] is reported as “active safeners”.

In the case of `CNC(=O)Oc1cccc2c1OC(C)(C)C2` [Biocide No. 4, 2,3-Dihydro-2,2-dimethyl-7-benzofuranyl methylcarbamate, reference compound], the “% Injury Corn” value in the assay on Corn [1] (Ex. 3: Insecticide 4 (227 g) alone) amounted to 5%.

As for `O=C(OCc1ccccc1)c1sc(Cl)nc1C(F)(F)F` [compound 7], the “% Inhibition VELE” value with Velvetleaf (VELE) (setting [13]) is recorded as 65%; with Velvetleaf (VELE) ([…], observed 7 days after POE (Table 35)) it was 75%.

`O=C1OC(=O)c2cccc3cccc1c23` [Antidote No. 5, 1H,3H-Naphtho<1,8-cd>pyran-1,3-dione]: the “giant foxtail control” value in the assay with Giant foxtail (GIFT) (XRD-498 + OP insecticides, Examples 24-27) was “reduction in giant foxtail control”.

On to `CCOP(=S)(OCC)SCSCC` [Biocide No. 10, O,O-Diethyl S-[(ethylthio)methyl]phosphorodithioate, reference compound], for which the “% Inhibition SHCA” value with Shattercane (SHCA) (in vivo) amounted to 25%. In addition, the “% Inhibition GIFT” value with Giant foxtail (GIFT) (in vivo) is 30% and 20%.

Take `O=C(O)c1sc(Cl)nc1C(F)(F)F` [Antidote No. 65, 5-Thiazolecarboxylic acid, 2-chloro-4-(trifluoromethyl)-]: in the assay on Corn [2], the “antidote activity” value is listed as “slightly more active than other thiazoles tested”.

For the molecule `O=C(O)COC(c1ccccc1)c1ccccc1` [compound 79], the “% Inhibition Corn” value in the assay with Corn [3] (setting [5]) was 15%; in the assay on Corn [3] (setting [6]), 0%; with Corn [3] (setting [7]), 20%; in the assay on Corn [3] (setting [8]), 5%; in the assay with Corn [3] (setting [9]), 30%; in the assay on Corn [3] (setting [10]), 15%. Also, the figures for the “% Inhibition Corn” value in the assay with Corn [3] (setting [11]) and in the assay with Corn [3] (setting [12]) were 45% and 20%, respectively.

Take `C=CCC(C)(C#N)Sc1ccc(C)cc1` (stereo not drawn) [compound 32]: the “% Inhibition 5 DAP VELE” value in the assay on Velvetleaf (VELE) (setting [14]), with Velvetleaf (VELE) (setting [17]) and in the assay on Velvetleaf (VELE) (in vivo) was 0% each time. Further, the “% Inhibition 13 DAP VELE” value stood at 90% with Velvetleaf (VELE) (setting [15]) and 85% in the assay with Velvetleaf (VELE) (in vivo). The “% Inhibition VELE” value is 65% with Velvetleaf (VELE) (setting [16]), 60% in the assay with Velvetleaf (VELE) (setting [18]), 70% in the assay with Velvetleaf (VELE) (setting [13]) and 80% with Velvetleaf (VELE) (setting [19]). The “% Inhibition 5 DAP SHCA” value in the assay on Shattercane (SHCA) (setting [14]) and with Shattercane (SHCA) (in vivo) was 30% in each case. The “% Inhibition 13 DAP SHCA” value worked out at 85% in the assay on Shattercane (SHCA) (setting [15]) and 80% in the assay on Shattercane (SHCA) (in vivo). Besides, the “% Inhibition SHCA” value in the assay with Shattercane (SHCA) (setting [16]) is 70%; in the assay on Shattercane (SHCA) (setting [18]), 70%; in the assay on Shattercane (SHCA) (setting [13]), 95%; with Shattercane (SHCA) (setting [19]), 50%. Further, the “% Inhibition 5 DAP Corn” value is on record as 0% in the assay on Corn [2] (setting [14]), 0% with Corn [2] (setting [17]) and 20% in the assay on Corn [2] (in vivo). The “% Inhibition 13 DAP Corn” value in the assay on Corn [2] (setting [15]) was 75%; in the assay with Corn [2] (in vivo) it was 70%. Also, the “% Inhibition Corn” value with Corn [2] (setting [16]) is 55%; in the assay on Corn [2] (setting [18]), 35%; in the assay with Corn [2] (setting [13]), 25%; in the assay on Corn [2] (setting [19]), 70%; with Corn [2] (in vivo), 65% and 55% and 45%. Besides, in the assay with Corn [2] (primisulfuron POE + biocides PPI, Tables 8-10), the “activity in reducing corn injury” value was “either inactive or weakly active”.

These data come from EP0565593B1, “REDUCING PESTICIDAL INTERACTIONS IN CROPS” (priority 1990, dated 1992).
